According to US20230263822A1, “MODULATION OF FACTOR 11 EXPRESSION” (Ionis Pharmaceuticals, Inc., priority 2008, published 2023):
Strand notation (5' to 3'): a small letter for the sugar, then the base; units joined by * are phosphorothioate-linked, units joined directly phosphodiester-linked; [ ] holds rarer units or linkages, { } end groups; capitals alone tell only the bases. e = 2'-O-(2-methoxyethyl) (MOE); [5mC] = 5-methylcytosine; d = 2'-deoxy (DNA)

What follows are substances tested on human Factor 11 mRNA (assay: Antisense inhibition of human Factor 11 in HepG2 cells by microwalk gapmers, lipofectin, 75 nM (Example 3)). Conditions: HepG2, lipofectin, ~24 h, gapmers targeted to nucleobases 656 to 704 of SEQ ID NO: 1.
Format: cell-based
How it was run: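 HepG2 cells (10,000/well) were transfected via lipofectin with 75 nM 20-mer MOE gapmers (phosphorothioate, 5-methyl-C) for about 24 h. Factor 11 mRNA was measured by qRT-PCR, normalized to RIBOGREEN total RNA, and given as percent inhibition versus untreated cells.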

Substance | % inhibition
416950 (antisense eA*e[5mC]*dA*dT*dA*dA*dA*dT*dG*dT*d[5mC]*dT*dT*dT*dG*eT*eT*eG*e[5mC]*eA) [compound 416950] | 71%
416968 (antisense e[5mC]*e[5mC]*d[5mC]*dT*dT*d[5mC]*dA*dT*dG*dT*d[5mC]*dT*dA*dG*dG*eT*e[5mC]*e[5mC]*eA*e[5mC]) [compound 416968] | 73%
416952 (antisense e[5mC]*e[5mC]*dA*d[5mC]*dA*dT*dA*dA*dA*dT*dG*dT*d[5mC]*dT*dT*eT*eG*eT*eT*eG) [compound 416952] | 51%
416875 (antisense e[5mC]*e[5mC]*eA*d[5mC]*dA*dT*dA*dA*dA*dT*dG*dT*d[5mC]*dT*dT*dT*dG*eT*eT*eG) [compound 416875] | 75%
416886 (antisense e[5mC]*eA*eT*dG*dT*d[5mC]*dT*dA*dG*dG*dT*d[5mC]*d[5mC]*dA*d[5mC]*dA*dT*eA*eA*eA) [compound 416886] | 74%
416816 (antisense e[5mC]*eT*eA*eG*eG*dT*d[5mC]*d[5mC]*dA*d[5mC]*dA*dT*dA*dA*dA*eT*eG*eT*e[5mC]*eT) [compound 416816] | 79%
416965 (antisense eT*eT*d[5mC]*dA*dT*dG*dT*d[5mC]*dT*dA*dG*dG*dT*d[5mC]*d[5mC]*eA*e[5mC]*eA*eT*eA) [compound 416965] | 53%
416961 (antisense eT*eG*dT*d[5mC]*dT*dA*dG*dG*dT*d[5mC]*d[5mC]*dA*d[5mC]*dA*dT*eA*eA*eA*eT*eG) [compound 416961] | 40%
416810 (antisense e[5mC]*eA*e[5mC]*eA*eT*dA*dA*dA*dT*dG*dT*d[5mC]*dT*dT*dT*eG*eT*eT*eG*e[5mC]) [compound 416810] | 68%
416808 (antisense eA*eT*eA*eA*eA*dT*dG*dT*d[5mC]*dT*dT*dT*dG*dT*dT*eG*e[5mC]*eA*eA*eG) [compound 416808] | 55%
416890 (antisense e[5mC]*e[5mC]*eT*dT*d[5mC]*dA*dT*dG*dT*d[5mC]*dT*dA*dG*dG*dT*d[5mC]*d[5mC]*eA*e[5mC]*eA) [compound 416890] | 87%
416963 (antisense e[5mC]*eA*dT*dG*dT*d[5mC]*dT*dA*dG*dG*dT*d[5mC]*d[5mC]*dA*d[5mC]*eA*eT*eA*eA*eA) [compound 416963] | 48%
416897 (antisense eT*eT*eT*dA*dT*dG*d[5mC]*d[5mC]*d[5mC]*dT*dT*d[5mC]*dA*dT*dG*dT*d[5mC]*eT*eA*eG) [compound 416897] | 66%
416956 (antisense eA*eG*dG*dT*d[5mC]*d[5mC]*dA*d[5mC]*dA*dT*dA*dA*dA*dT*dG*eT*e[5mC]*eT*eT*eT) [compound 416956] | 61%
416882 (antisense eT*e[5mC]*eT*dA*dG*dG*dT*d[5mC]*d[5mC]*dA*d[5mC]*dA*dT*dA*dA*dA*dT*eG*eT*e[5mC]) [compound 416882] | 60%
416885 (antisense eA*eT*eG*dT*d[5mC]*dT*dA*dG*dG*dT*d[5mC]*d[5mC]*dA*d[5mC]*dA*dT*dA*eA*eA*eT) [compound 416885] | 67%
416881 (antisense e[5mC]*eT*eA*dG*dG*dT*d[5mC]*d[5mC]*dA*d[5mC]*dA*dT*dA*dA*dA*dT*dG*eT*e[5mC]*eT) [compound 416881] | 81%
416820 (antisense e[5mC]*eA*eT*eG*eT*d[5mC]*dT*dA*dG*dG*dT*d[5mC]*d[5mC]*dA*d[5mC]*eA*eT*eA*eA*eA) [compound 416820] | 77%

Same assay, conditions: HepG2 cells, lipofectin, gapmers targeted to nucleobases 738 to 762 of SEQ ID NO: 1

Substance | % inhibition
416903 (antisense eG*eT*e[5mC]*dA*dT*d[5mC]*d[5mC]*dG*dT*dG*d[5mC]*dA*dT*d[5mC]*dT*dT*dT*e[5mC]*eT*eT) [compound 416903] | 88%
416833 (antisense eT*e[5mC]*eA*eT*e[5mC]*d[5mC]*dG*dT*dG*d[5mC]*dA*dT*d[5mC]*dT*dT*eT*e[5mC]*eT*eT*eG) [compound 416833] | 65%

Same assay, conditions: HepG2 cells, lipofectin, gapmers targeted to nucleobases 1018 to 1042 of SEQ ID NO: 1

Substance | % inhibition
416837 (antisense e[5mC]*eA*eA*e[5mC]*e[5mC]*dG*dG*dG*dA*dT*dG*dA*dT*dG*dA*eG*eT*eG*e[5mC]*eA) [compound 416837] | 90%
416906 (antisense eA*eA*e[5mC]*d[5mC]*dG*dG*dG*dA*dT*dG*dA*dT*dG*dA*dG*dT*dG*e[5mC]*eA*eG) [compound 416906] | 88%

Same assay, conditions: HepG2 cells, lipofectin, gapmers targeted to nucleobases 1062 to 1091 of SEQ ID NO: 1

Substance | % inhibition
416845 (antisense eT*e[5mC]*eT*eT*eT*dG*dA*dG*dA*dT*dT*d[5mC]*dT*dT*dT*eG*eG*eG*e[5mC]*e[5mC]) [compound 416845] | 86%
416994 (antisense eT*e[5mC]*dT*dT*dT*dG*dA*dG*dA*dT*dT*d[5mC]*dT*dT*dT*eG*eG*eG*e[5mC]*e[5mC]) [compound 416994] | 83%
416917 (antisense eT*e[5mC]*eT*dT*dT*dG*dA*dG*dA*dT*dT*d[5mC]*dT*dT*dT*dG*dG*eG*e[5mC]*e[5mC]) [compound 416917] | 92%
416992 (antisense eT*eT*dT*dG*dA*dG*dA*dT*dT*d[5mC]*dT*dT*dT*dG*dG*eG*e[5mC]*e[5mC]*eA*eT) [compound 416992] | 84%
416990 (antisense eT*eG*dA*dG*dA*dT*dT*d[5mC]*dT*dT*dT*dG*dG*dG*d[5mC]*e[5mC]*eA*eT*eT*e[5mC]) [compound 416990] | 76%
416912 (antisense eG*eA*eG*dA*dT*dT*d[5mC]*dT*dT*dT*dG*dG*dG*d[5mC]*d[5mC]*dA*dT*eT*e[5mC]*e[5mC]) [compound 416912] | 92%
416910 (antisense eG*eA*eT*dT*d[5mC]*dT*dT*dT*dG*dG*dG*d[5mC]*d[5mC]*dA*dT*dT*d[5mC]*e[5mC]*eT*eG) [compound 416910] | 90%
416988 (antisense eA*eG*dA*dT*dT*d[5mC]*dT*dT*dT*dG*dG*dG*d[5mC]*d[5mC]*dA*eT*eT*e[5mC]*e[5mC]*eT) [compound 416988] | 76%
416840 (antisense eA*eG*eA*eT*eT*d[5mC]*dT*dT*dT*dG*dG*dG*d[5mC]*d[5mC]*dA*eT*eT*e[5mC]*e[5mC]*eT) [compound 416840] | 85%

Same assay, conditions: HepG2 cells, lipofectin, gapmers targeted to nucleobases 1275 to 1318 of SEQ ID NO: 1

Substance | % inhibition
417018 (antisense eG*eG*d[5mC]*dA*dG*d[5mC]*dG*dG*dA*d[5mC]*dG*dG*d[5mC]*dA*dT*eT*eG*eG*eT*eG) [compound 417018] | 82%
417011 (antisense eG*eA*d[5mC]*dG*dG*d[5mC]*dA*dT*dT*dG*dG*dT*dG*d[5mC]*dA*e[5mC]*eA*eG*eT*eT) [compound 417011] | 86%
416932 (antisense e[5mC]*eG*eG*d[5mC]*dA*dT*dT*dG*dG*dT*dG*d[5mC]*dA*d[5mC]*dA*dG*dT*eT*eT*e[5mC]) [compound 416932] | 92%
416942 (antisense eT*eG*eG*d[5mC]*dA*dG*d[5mC]*dG*dG*dA*d[5mC]*dG*dG*d[5mC]*dA*dT*dT*eG*eG*eT) [compound 416942] | 85%
416936 (antisense e[5mC]*eG*eG*dA*d[5mC]*dG*dG*d[5mC]*dA*dT*dT*dG*dG*dT*dG*d[5mC]*dA*e[5mC]*eA*eG) [compound 416936] | 89%
416929 (antisense e[5mC]*eA*eT*dT*dG*dG*dT*dG*d[5mC]*dA*d[5mC]*dA*dG*dT*dT*dT*d[5mC]*eT*eG*eG) [compound 416929] | 83%
417020 (antisense e[5mC]*eT*dG*dG*d[5mC]*dA*dG*d[5mC]*dG*dG*dA*d[5mC]*dG*dG*d[5mC]*eA*eT*eT*eG*eG) [compound 417020] | 84%
417006 (antisense e[5mC]*eA*dT*dT*dG*dG*dT*dG*d[5mC]*dA*d[5mC]*dA*dG*dT*dT*eT*e[5mC]*eT*eG*eG) [compound 417006] | 81%
417016 (antisense e[5mC]*eA*dG*d[5mC]*dG*dG*dA*d[5mC]*dG*dG*d[5mC]*dA*dT*dT*dG*eG*eT*eG*e[5mC]*eA) [compound 417016] | 85%
416943 (antisense e[5mC]*eT*eG*dG*d[5mC]*dA*dG*d[5mC]*dG*dG*dA*d[5mC]*dG*dG*d[5mC]*dA*dT*eT*eG*eG) [compound 416943] | 92%
416940 (antisense eG*e[5mC]*eA*dG*d[5mC]*dG*dG*dA*d[5mC]*dG*dG*d[5mC]*dA*dT*dT*dG*dG*eT*eG*e[5mC]) [compound 416940] | 92%
416998 (antisense e[5mC]*eA*d[5mC]*dA*dG*dT*dT*dT*d[5mC]*dT*dG*dG*d[5mC]*dA*dG*eG*e[5mC]*e[5mC]*eT*e[5mC]) [compound 416998] | 88%
